tested on: HCV replicon I389luc-ubi-neo/NS3-3′/ET in ET (Huh-lucubineo-ET) cells; screening for HCV RNA dependent RNA polymerase; assay: Replicon Assay (luciferase, ET cell line Huh-lucubineo-ET); format: cell-based; conditions: Hepatitis C virus; inhibition of replication relative to no compound control; test concentration of 10 μM according to the fitted equation; luciferase 48-72 hours
Procedure: A cell line, ET (Huh-lucubineo-ET) was used for screening of compounds of the present invention for HCV RNA dependent RNA polymerase. The ET cell line was stably transfected with RNA transcripts harboring a I389luc-ubi-neo/NS3-3′/ET; replicon with firefly luciferase-ubiquitin-neomycin phosphotransferase fusion protein and EMCV-IRES driven NS3-5B polyprotein containing the cell culture adaptive mutations (E1202G; T12801; K1846T) (Krieger at al, 2001 and unpublished). The ET cells were grown in DMEM, supplemented with 10% fetal calf serum, 2 mM Glutamine, Penicillin (100 IU/mL)/Streptomycin (100 μg/mL), 1× nonessential amino acids, and 250 μg/mL G418 (“Geneticin”). They were all available through Life Technologies (Bethesda, Md.). The cells were plated at 0.5-1.0×10^4 cells/well in the 96 well plates and incubated for 24 hrs before adding nucleoside analogs. […] Luciferase activity were measured 48-72 hours later by adding a lysis buffer and the substrate (Catalog number Glo-lysis buffer E2661 and Bright-Glo luciferase system E2620 Promega, Madison, Wis.). Cells should not be too confluent during the assay. Percent inhibition of replication was plotted relative to no compound control. Under the same condition, cytotoxicity of the compounds was determined using cell proliferation reagent, WST-1(Roche, Germany). The compounds showing antiviral activities, but no significant cytotoxicities were chosen to determine IC50 and TC50. For these determinations, 10 concentrations of each compound were used. Concentrations for test compounds typically span a range of 500 fold. IC50 and TC50 values were calculated by fitting % inhibition at each concentration (I) to the following equation: % inhibition=100%/[1+10^(log IC50−log (I))*b] where b is Hill's coefficient.

Compound	inhibition at 10 µM
O=C(Nc1cccc(-c2cnc(NC(=O)[C@@H]3CCCN3C(=O)OCc3ccccc3)s2)c1)C1CCCC1 [Compound 5116, 2-{5-[3-(Cyclopentanecarbonyl-amino)-phenyl]-thiazol-2-ylcarbamoyl}-pyrrolidine-1-carboxylic acid benzyl ester]	100%
O=C(Nc1nc(-c2cc3ccccc3oc2=O)cs1)[C@@H]1CCCN1C(=O)OCc1ccccc1 [Compound 5007, 2-[4-(2-Oxo-2H-chromen-3-yl)-thiazol-2-ylcarbamoyl]-pyrrolidine-1-carboxylic acid benzyl ester]	100%
CCCOc1ccc(-c2cnc(NC(=O)[C@@H]3CCCN3C(=O)OCc3ccccc3)s2)cc1 [Compound 5011, 2-[5-(4-Propoxy-phenyl)-thiazol-2-ylcarbamoyl]-pyrrolidine-1-carboxylic acid benzyl ester]	32.9%
CN(C(=O)c1ccc(-c2csc(NC(=O)[C@@H]3CCCN3C(=O)OCc3ccccc3)n2)cc1)c1ccccc1 [Compound 5328, 2-{4-[4-(Methyl-phenyl-carbamoyl)-phenyl]-thiazol-2-ylcarbamoyl}-pyrrolidine-1-carboxylic acid benzyl ester]	97.3%
O=C(Nc1nc(-c2ccc(S(=O)(=O)NC3CC3)cc2)cs1)C1CCCN1C(=O)OCc1ccccc1 (stereo not drawn) [Compound 5378, 2-[4-(4-Cyclopropylsulfamoyl-phenyl)-thiazol-2-ylcarbamoyl]-pyrrolidine-1-carboxylic acid benzyl ester]	98.3%
COC(=O)N1CCC[C@H]1C(=O)Nc1nc(-c2ccc(C(=O)NC3CC3)cc2)cs1 [Compound 5373, 2-[4-(4-Cyclopropylcarbamoyl-phenyl)-thiazol-2-ylcarbamoyl]-pyrrolidine-1-carboxylic acid methyl ester]	81.5%
CN(C(=O)c1ccc(-c2csc(NC(=O)[C@@H]3CCCN3C(=O)OCc3ccccc3)n2)cc1)C1CCCCC1 [Compound 5332, 2-{4-[4-(Cyclohexyl-methyl-carbamoyl)-phenyl]-thiazol-2-ylcarbamoyl}-pyrrolidine-1-carboxylic acid benzyl ester]	99.7%
CCCc1ccc(-c2csc(NC(=O)[C@@H]3CCCN3C(=O)OCc3ccccc3)n2)cc1 [Compound 5099, 2-[4-(4-Propyl-phenyl)-thiazol-2-ylcarbamoyl]-pyrrolidine-1-carboxylic acid benzyl ester]	35.7%
O=C(NC1CC1)c1ccc(-c2csc(NC(=O)[C@@H]3CCCN3C(=O)Cc3ccc(F)cc3)n2)cc1 [Compound 5323, 1-[2-(4-Fluoro-phenyl)-acetyl]-pyrrolidine-2-carboxylic acid [4-(4-cyclopropylcarbamoyl-phenyl)-thiazol-2-yl]-amide]	81.5%
Cc1ccc(S(=O)(=O)Nc2ccc(-c3csc(NC(=O)[C@@H]4CCCN4C(=O)OCc4ccccc4)n3)cc2)cc1 [Compound 5005, 2-{4-[4-(Toluene-4-sulfonylamino)-phenyl]-thiazol-2-ylcarbamoyl}-pyrrolidine-1-carboxylic acid benzyl ester]	99.8%
O=C(O)c1ccc(-c2csc(NC(=O)[C@@H]3CCCN3C(=O)OCc3ccccc3)n2)cc1 [Compound 5106, 2-[4-(4-Carboxy-phenyl)-thiazol-2-ylcarbamoyl]-pyrrolidine-1-carboxylic acid benzyl ester]	46.3%
CC(C)(C)c1csc(NC(=O)[C@@H]2CCCN2C(=O)OCc2ccccc2)n1 [Compound 5360, 2-(4-tert-Butyl-thiazol-2-ylcarbamoyl)-pyrrolidine-1-carboxylic acid benzyl ester]	54%
O=C(Nc1ccccn1)c1ccc(-c2csc(NC(=O)[C@@H]3CCCN3C(=O)OCc3ccccc3)n2)cc1 [Compound 5372, 2-{4-[4-(Pyridin-2-ylcarbamoyl)-phenyl]-thiazol-2-ylcarbamoyl}-pyrrolidine-1-carboxylic acid benzyl ester]	99.9%
O=C(NC1CC1)c1ccc(-c2csc(NC(=O)[C@@H]3COCN3C(=O)OCc3ccccc3)n2)cc1 [Compound 5313, 4-[4-(4-Cyclopropylcarbamoyl-phenyl)-thiazol-2-ylcarbamoyl]-oxazolidine-3-carboxylic acid benzyl ester]	100%
O=C(Nc1nc(-c2ccc(OCc3ccc(Br)cc3)cc2)cs1)[C@@H]1CCCN1C(=O)OCc1ccccc1 [Compound 5066, 2-{4-[4-(4-Bromo-benzyloxy)-phenyl]-thiazol-2-ylcarbamoyl}-pyrrolidine-1-carboxylic acid benzyl ester]	5.72%
O=C(Nc1cccc(-c2csc(NC(=O)C3CCCN3C(=O)OCc3ccccc3)n2)c1)c1ccccc1 (stereo not drawn) [Compound 5019, 2-[4-(3-Benzoylamino-phenyl)-thiazol-2-ylcarbamoyl]-pyrrolidine-1-carboxylic acid benzyl ester]	100%
O=C(Cc1csc(NC(=O)[C@@H]2CCCN2C(=O)OCc2ccccc2)n1)NCCc1ccccc1 [Compound 5068, 2-[4-(Phenethylcarbamoyl-methyl)-thiazol-2-ylcarbamoyl]-pyrrolidine-1-carboxylic acid benzyl ester]	13.5%
O=C(Nc1nc(-c2ccc([N+](=O)[O-])cc2)cs1)[C@@H]1CCCN1C(=O)OCc1ccccc1 [Compound 5041, 2-[4-(4-Nitro-phenyl)-thiazol-2-ylcarbamoyl]-pyrrolidine-1-carboxylic acid benzyl ester]	76%
O=C(NC1CC1)c1ccc(-c2csc(NC(=O)[C@@H]3CCCN3CCc3ccccc3)n2)cc1 [Compound 5316, 1-Phenethyl-pyrrolidine-2-carboxylic acid [4-(4-cyclopropylcarbamoyl-phenyl)-thiazol-2-yl]-amide]	3.19%
COCCCNC(=O)c1ccc(-c2csc(NC(=O)[C@@H]3CCCN3C(=O)OCc3ccccc3)n2)cc1 [Compound 5370, 2-{4-[4-(3-Methoxy-propylcarbamoyl)-phenyl]-thiazol-2-ylcarbamoyl}-pyrrolidine-1-carboxylic acid benzyl ester]	100%
Nc1cccc(-c2csc(NC(=O)C3CCCN3C(=O)OCc3ccccc3)n2)c1 (stereo not drawn) [Compound 5001, 2-[4-(3-Amino-phenyl)-thiazol-2-ylcarbamoyl]-pyrrolidine-1-carboxylic acid benzyl ester]	99.6%
CS(=O)(=O)Nc1ccc(-c2csc(NC(=O)C3CCCN3C(=O)OCc3ccccc3)n2)cc1 (stereo not drawn) [Compound 5004, 2-[4-(4-Methanesulfonylamino-phenyl)-thiazol-2-ylcarbamoyl]-pyrrolidine-1-carboxylic acid benzyl ester]	99.9%
COc1ccc(-c2csc(NC(=O)[C@@H]3CCCN3C(=O)OCc3ccccc3)n2)cc1OC [Compound 5054, 2-[4-(3,4-Dimethoxy-phenyl)-thiazol-2-ylcarbamoyl]-pyrrolidine-1-carboxylic acid benzyl ester]	99.3%
O=C(Nc1nc(-c2ccc3ccccc3c2)cs1)[C@@H]1CCCN1C(=O)OCc1ccccc1 [Compound 5060, 2-(4-Naphthalen-2-yl-thiazol-2-ylcarbamoyl)-pyrrolidine-1-carboxylic acid benzyl ester]	98.4%
